Among the data in PubChem BioAssay AID1259407 (Chemical Carcinogenesis Research Information System (CCRIS), 2018) are mutagenic call values, retold here.

The subject of this data set is CCRIS mutagenicity, Ames/micronucleus/aberration tests. Put plainly: CCRIS mutagenicity studies.
[1] abbreviates: Test System: AMES SALMONELLA TYPHIMURIUM, Strain/Indicator: TA100, Metabolic Activation: NONE, Method: STANDARD PLATE.

The structures appear in SMILES notation. Calls of active or inactive are those of the source. How the calls were made is not given here.

In the case of `CN(N=O)C(=O)NC1O[C@H](CO)[C@@H](O)[C@H](O)[C@H]1O` (stereo partly specified), under “Test System: CHINESE HAMSTER V-79, Strain/Indicator: V-79/8-AZAGUANINE, Metabolic Activation: NONE, Method: STANDARD PLATE”, the mutagenic call was “active; positive”.

Take `Nc1ccc(-c2ccc(N)c([N+](=O)[O-])c2)cc1`: the mutagenic call (Test System: AMES SALMONELLA TYPHIMURIUM, Strain/Indicator: TA98(1,8-DNP6), Metabolic Activation: NONE, Method: STANDARD PLATE) was “active; positive”; the mutagenic call (Test System: AMES SALMONELLA TYPHIMURIUM, Strain/Indicator: TA98(1,8-DNP6), Metabolic Activation: S-9, Method: STANDARD PLATE) was “active; positive”; the mutagenic call (Test System: AMES SALMONELLA TYPHIMURIUM, Strain/Indicator: TA98, Metabolic Activation: NONE, Method: STANDARD PLATE) was “active; positive”; the mutagenic call (Test System: AMES SALMONELLA TYPHIMURIUM, Strain/Indicator: TA98, Metabolic Activation: S-9, Method: STANDARD PLATE) is “active; positive”; the mutagenic call under setting [1] is “inactive; negative”; the mutagenic call (Test System: AMES SALMONELLA TYPHIMURIUM, Strain/Indicator: TA100, Metabolic Activation: S-9, Method: STANDARD PLATE) was “active; positive”.

`O=C(ON(OCc1ccccc1)C(=O)c1ccccc1)c1ccc(Cl)cc1`: the mutagenic call is “active; positive” under setting [1] and “active; positive” (Test System: AMES SALMONELLA TYPHIMURIUM, Strain/Indicator: TA100, Metabolic Activation: RAT, S-9, AROCLOR, Method: STANDARD PLATE).

As for `CCCCN(N=O)C(=O)N(C)C`, the mutagenic call runs as follows: (Test System: E. COLI, Strain/Indicator: WP2 UVRA, Metabolic Activation: NONE, Method: PREINCUBATION) “active; positive”; (Test System: E. COLI, Strain/Indicator: WP2 UVRA, Metabolic Activation: RAT, LIVER, S-9, PHENOBARBITAL AND 5,6-BENZOFLAVONE, Method: PREINCUBATION) “active; positive”.

Consider `CCCCNN`, for which the mutagenic call is “active; positive” (Test System: AMES SALMONELLA TYPHIMURIUM, Strain/Indicator: TA100, Metabolic Activation: NONE, Method: PREINCUBATION (11 HR GROWTH PERIOD FOR BACTERIA)); “inactive; negative” (Test System: AMES SALMONELLA TYPHIMURIUM, Strain/Indicator: TA100, Metabolic Activation: RAT, LIVER, S-9, PCB, Method: PREINCUBATION (11 HR GROWTH PERIOD FOR BACTERIA)); “active; positive” (Test System: AMES SALMONELLA TYPHIMURIUM, Strain/Indicator: TA102, Metabolic Activation: NONE, Method: PREINCUBATION (5 OR 7 HR GROWTH PERIOD FOR BACTERIA)); “inactive; negative” (Test System: AMES SALMONELLA TYPHIMURIUM, Strain/Indicator: TA102, Metabolic Activation: RAT, LIVER, S-9, PCB, Method: PREINCUBATION (5 HR GROWTH PERIOD FOR BACTERIA)); “active; positive” (Test System: AMES SALMONELLA TYPHIMURIUM, Strain/Indicator: TA102, Metabolic Activation: RAT, LIVER, S-9, PCB, Method: PREINCUBATION (7 HR GROWTH PERIOD FOR BACTERIA)).
